# Where a name gives a salt, the structure may show the parent alone.
# Target: T1, human histamine H3 receptor (Homo sapiens, UniProt Q9Y5N1)
# T1 construct: expressed in transfected cells; membranes prepared from cell pellets
# Experiment: [3H]-N-methylhistamine binding to membranes of histamine H3 receptor-expressing SK-N-MC cells
# Conditions: not given
# Method: Thus in the present invention receptor binding was determined using the human histamine H3 receptor (See Lovenberg et al Mol. Pharmacol. 1999, 1107). Screening using the human receptor is particularly important for the identification of new therapies for the treatment of human disease. Conventional binding assays for example are determined using rat synaptosomes (Garbarg et al J. Pharmacol. Exp. Ther. 1992, 263, 304), rat cortical membranes (West et al Mol. Pharmacol. 1990, 610), and guinea pig brain (Korte et al Biochem. Biophys. Res. Commun. 1990, 978).
# Transfection of Cells with Human Histamine Receptor
# A 10 cm tissue culture dish with a confluent monolayer of SK-N-MC cells was split two days prior to transfection. Using sterile technique the media was removed and the cells were detached from the dish by the addition of trypsin. One fifth of the cells were then placed onto a new 10 cm dish. Cells were grown in a 37° C. incubator with 5% CO2 in Minimal Essential Media Eagle with 10% Fetal Bovine Serum. After two days cells were approximately 80% confluent. These were removed from the dish with trypsin and pelleted in a clinical centrifuge. The pellet was then re-suspended in 400 μL complete media and transferred to an electroporation cuvette with a 0.4 cm gap between the electrodes (Bio-Rad #165–2088). One microgram of supercoiled H3 receptor cDNA was added to the cells and mixed. The voltage for the electroporation was set at 0.25 kV, the capacitance was set at 960 μF. After electroporation the cells were diluted into 10 mL complete media and plated onto four 10 cm dishes. Because of the variability in the efficiency of electroporation, four different concentrations of cells were plated. The ratios used were; 1:20, 1:10, 1:5, with the remainder of the cells being added to the fourth dish. The cells were allowed to recover for 24 hours before adding the selection media (complete media with 600 μg/mL G418). After 10 days dishes were analyzed for surviving colonies of cells. Dishes with well isolated colonies were used. Cells from individual colonies were isolated and tested. SK-N-MC cells were used because they give efficient coupling for inhibition of adenylate cyclase. The clones that gave the most robust inhibition of adenylate cyclase in response to histamine were used for further study.
# [^3H]-N-methylhistamine Binding
# Cell pellets from histamine H3 receptor-expressing SK-N-MC cells were homogenized in 20 mM TrisHCI/0.5 mM EDTA. Supernatants from a 800 g spin were collected, recentrifuged at 30,000 g for 30 minutes. Pellets were re-homogenized in 50 mM Tris/5 mM EDTA (pH 7.4). Membranes were incubated with 0.8 nM [^3H]-N-methylhistamine plus/minus test compounds for 45 min at 25° C. and harvested by rapid filtration over GF/C glass fiber filters (pretreated with 0.3% polyethylenimine) followed by four washes with ice cold buffer. Filters were dried, added to 4 mL scintillation cocktail and then counted on a liquid scintillation counter. Non-specific binding was defined with 10 μM histamine. The pKi values were calculated based on a Kd of 800 pM and a ligand concentration ([L]) of 800 pM according to the formula: Ki=(IC50)/(1+([L]/(Kd))
# T1 sequence (Q9Y5N1 whole entry): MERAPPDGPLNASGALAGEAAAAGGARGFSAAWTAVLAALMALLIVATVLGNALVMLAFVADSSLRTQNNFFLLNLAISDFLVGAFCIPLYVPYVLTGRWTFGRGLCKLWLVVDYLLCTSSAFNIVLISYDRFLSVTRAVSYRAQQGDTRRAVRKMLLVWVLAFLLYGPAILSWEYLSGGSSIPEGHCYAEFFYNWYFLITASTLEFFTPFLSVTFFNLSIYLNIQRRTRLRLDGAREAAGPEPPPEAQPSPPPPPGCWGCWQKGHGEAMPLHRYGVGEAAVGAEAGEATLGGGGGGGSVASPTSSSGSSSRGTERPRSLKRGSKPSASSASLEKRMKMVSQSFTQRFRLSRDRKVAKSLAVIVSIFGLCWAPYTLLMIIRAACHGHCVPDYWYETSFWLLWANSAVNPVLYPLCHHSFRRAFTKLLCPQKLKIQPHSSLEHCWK
row,Structure (SMILES),Ki [nM]
1,"OC1CCN(Cc2ccc(OCCCN3CCCCC3)cc2)CC1 [Example 89, 1-[4-(3-Piperidin-1-yl-propoxy)-benzyl]-piperidin-4-ol]",0.6

# Same assay, conditions: 0.8 nM [3H]-N-methylhistamine, 45 min at 25° C., SK-N-MC cell membranes; Ki=(IC50)/(1+([L]/(Kd)); read-out: Ki
row,Structure (SMILES),Ki [nM]
1,"CN(C)CCOc1ccc(OCCCN2CCCCC2)cc1 [Example 29, Dimethyl-{2-[4-(3-piperidin-1-yl-propoxy)-phenoxy]-ethyl}-amine]",2.3
2,"c1cncc(C2CCCCN2Cc2ccc(OCCCN3CCCCC3)cc2)c1 (stereo not shown) [Example 61, 1-[4-(3-Piperidin-1-yl-propoxy)-benzyl]-1,2,3,4,5,6-hexahydro-[2,3′]bipyridinyl]",2
3,"OCCC1CCCCN1CCCOc1ccc(CN2CCCCC2)cc1 (stereo not shown) [Example 69, 2-{1-[3-(4-Piperidin-1-ylmethyl-phenoxy)-propyl]-piperidin-2-yl}-ethanol]",3.9
4,"c1cc(N2CCNCC2)ccc1OCCCN1CCCCC1 [Example 25, 1-[4-(3-Piperidin-1-yl-propoxy)-phenyl]-piperazine hydrochloride]",1
5,"c1cc(OCCCN2CCCCC2)ccc1CNC1CCCCC1 [Example 49, Cyclohexyl-[4-(3-piperidin-1-yl-propoxy)-benzyl]-amine]",1
6,"CC(C)N1CCN(Cc2ccc(OCCCN3CCCCC3)cc2)CC1 [Example 88, 1-Isopropyl-4-[4-(3-piperidin-1-yl-propoxy)-benzyl]-piperazine]",2
7,"c1ccc(CCCC2CCN(Cc3ccc(OCCCN4CCCCC4)cc3)CC2)cc1 [Example 58, 1-[4-(3-Piperidin-1-yl-propoxy)-benzyl]-4-(3-phenyl-propyl)-piperidine]",1.9
8,"c1cc(-n2nnnc2SCCCN2CCCCC2)ccc1OCCCN1CCCCC1 [Example 32, 1-(3-{4-[5-(3-Piperidin-1-yl-propylsulfanyl)-tetrazol-1-yl]-phenoxy}-propyl)-piperidine]",0.5
9,"C(=C1CCN(Cc2ccccc2OCCCN2CCCCC2)CC1)c1ccccc1 [Example 70, 1-{3-[2-(4-Benzylidene-piperidin-1-ylmethyl)-phenoxy]-propyl}-piperidine]",380
10,"COc1ccc(CCN(C)Cc2ccc(OCCCN3CCCCC3)cc2)cc1OC [Example 82, [2-(3,4-Dimethoxy-phenyl)-ethyl]-methyl-[4-(3-piperidin-1-yl-propoxy)-benzyl]-amine]",1.6
11,"c1ccc(CN(CCCn2cccc2-c2ccc(OCCCN3CCCCC3)cc2)Cc2ccccc2)cc1 [Example 92, Dibenzyl-(3-{2-[4-(3-piperidin-1-yl-propoxy)-phenyl]-pyrrol-1-yl}-propyl)-amine]",5.5
12,"c1cc(OCCCN2CCCCC2)ccc1CN1CCCCCCCCCCCC1 [Example 45, 1-[4-(3-Piperidin-1-yl-propoxy)-benzyl]-azacyclotridecane]",2.5
13,"c1cc(OCCCN2CCCCC2)ccc1CN1CCC2(CC1)OCCO2 [Example 54, 8-[4-(3-Piperidin-1-yl-propoxy)-benzyl]-1,4-dioxa-8-aza-spiro[4.5]decane]",1
14,"CCN(Cc1ccncc1)Cc1ccc(OCCCN2CCCCC2)cc1 [Example 79, Ethyl-[4-(3-piperidin-1-yl-propoxy)-benzyl]-pyridin-4-ylmethyl-amine]",1.3
15,"C(=C1CCN(Cc2ccc(OCCCN3CCCCC3)cc2)CC1)c1ccccc1 [Example 72, 1-{3-[4-(4-Benzylidene-piperidin-1-ylmethyl)-phenoxy]-propyl}-piperidine]",1.3
16,"c1ccc(NCc2cccc(OCCCN3CCCCC3)c2)nc1 [Example 66, [3-(3-Piperidin-1-yl-propoxy)-benzyl]-pyridin-2-yl-amine]",8

# Same assay, conditions: 0.8 nM [3H]-N-methylhistamine, 45 min at 25° C., SK-N-MC cell membranes; […]; read-out: Ki
row,Structure (SMILES),Ki [nM]
1,"c1ccc(N(CCN2CCCC2)C2CCN(Cc3ccc(OCCCN4CCCCC4)cc3)CC2)nc1 [Example 38, {1-[4-(3-Piperidin-1-yl-propoxy)-benzyl]-piperidin-4-yl}-pyridin-2-yl-(2-pyrrolidin-1-yl-ethyl)-amine]",1.2

# Same assay, conditions: 0.8 nM [3H]-N-methylhistamine, 45 min at 25° C., SK-N-MC cell membranes; unit given as nm; read-out: Ki
row,Structure (SMILES),Ki [nM]
1,"c1ccc2c(c1)CCCN2Cc1ccc(OCCCN2CCCCC2)cc1 [Example 95, 1-[4-(3-Piperidin-1-yl-propoxy)-benzyl]-1,2,3,4-tetrahydro-quinoline]",4.8
